Assays:
isolated mitochondria = experiment: In vitro mitochondria test: H2O2 formation of isolated mitochondria (amplexRed/horseradish peroxidase kinetic test); type: biochemical; settings: for Quantity of H2O2 formed: 5 mM succinate alone = 100.0
Source text: A. The Reduced H2O2 Formation of Isolated Mitochondria as In Vitro Parameters for Endogenous Radical Stress:
Mitochondria reduce 95% of the oxygen to water.
Overproduction and/or reduced detoxification of superoxide anion and hydrogen peroxide leads to the development of oxidative stress. This is crucially implicated in neuronal cell death in all kinds of neurodegenerative diseases.
In the presence of the energy substrate succinate, isolated mitochondria produce H2O2, which results from the dismutation of superoxide anion. In the presence of amplexRed™ and horseradish peroxidase, the fluorogenic chromophor resorufin is formed, which is measured and quantified in a kinetic test. The quantity of H2O2 formed by the mitochondria can be increased by the addition of the quinone analogue duroquinone.

aconitase = settings: mice, oral, 4 days, 2×1 mg/kg/d; brain mitochondria; control (0.9% saline) 100±8%; n=4
Procedure: Mice (C57BL6) were treated with pramipexole by oral route for 4 days in a dose of 2×1 mg/kg KG/d. The animals were then anaesthetised, killed, their brains were removed and the mitochondria (location of the enzyme and site of the radical formation) were isolated. Then the activity was determined by means of a coupled optical test.

Quantity of H2O2 formed (isolated mitochondria; 5 mM succinate + 3 μM duroquinone + 100 μM pramipexole) [%] | duroquinone-induced formation of H2O2 reduced to (isolated mitochondria; summary of Table 1) | SMILES | aconitase activity (aconitase) [%] | Quantity of H2O2 formed (isolated mitochondria; 5 mM succinate + 3 μM duroquinone) [%]
58.3 ± 24.6 | 50-60% | CCCNC1CCc2nc(N)sc2C1 (stereo not shown) [pramipexole, 2-amino-4,5,6,7-tetrahydro-6-n-propylamino-benzothiazole] | 153±16 | 
 |  | CC1=C(C)C(=O)C(C)=C(C)C1=O [duroquinone] |  | 152.2 ± 1.4

Reference: patent publication US20040122068A1, “Pramipexole for the treatment of HIV dementia” (Boehringer Ingelheim Pharma GmbH & Co. KG, priority 2002, published 2004)
